Key:
KHK-C [1] = target: T1, KHK-C (Homo sapiens (Human), UniProt P50053); assay: Inhibitory activity against KHK-C kinase in vitro (ADP-Glo), Experimental Protocol II; format: biochemical; details: 1 nM KHK-C, 100 μM ATP, 200 μM D-Fructose, control drug top concentration 1000 nM
Experimental: Experimental Protocol II: 1. Compound Dilution • 1) The compounds of the present invention and the control drug were formulated in DMSO to 10 mM as stock solutions for test. • 2) The stock solutions of the compounds of the present invention were diluted by 10-fold to 1 mM, and then further diluted in a 3-fold gradient to 11 concentrations, with the highest concentration being 1 mM. The stock solution of the control drug was diluted by 100-fold to 0.1 mM, and then further diluted in a 3-fold gradient to 11 concentrations, with the highest concentration being 0.1 mM. • 3) 0.1 μL of the compounds of the present invention and the control drug as diluted was transferred with Echo550 to a 384-well plate, in duplicate per concentration, and then centrifuged at 1000 rpm for 1 min. 2. Enzyme Reaction Test • 1) 5 μL of KHK-C kinase working solution was added to the 384-well plate, centrifuged at 1000 rpm for 1 min, and then incubated at room temperature of 25° C. for 15 min. • 2) 5 μL of the substrate working solution was added to the 384-well plate to initiate the kinase reaction, centrifuged at 1000 rpm for 1 min, and incubated at room temperature of 25° C. for 60 min. • 3) The final concentrations of the KHK-C kinase reaction system were 1 nM for KHK-C, 100 μM for ATP, 200 μM for D-Fructose, 50 mM for HEPES, 10 mM for MgCl2, and 0.01% for Brij35, and the final concentration of DMSO was 1%. • 4) The final concentrations of the test compounds were 10000 nM, 3333.33 nM, 1111.11 nM, 370.37 nM, 123.457 nM, 41.15 nM, 13.71 nM, 4.572 nM, 1.524 nM, 0.508 nM, and 0.169 nM, respectively. • 5) The final concentrations of the control drug were 1000 nM, 333.33 nM, 111.11 nM, 37.037 nM, 12.346 nM, 4.115 nM, 1.371 nM, 0.4572 nM, 0.1524 nM, 0.0508 nM, and 0.0169 nM, respectively. 3. Reaction Termination and Detection • 1) The 384-well plate was added with 10 μL of the ADP Glo reagent, centrifuged at 1000 rpm for 1 min, and then incubated at room temperature of 25° C. for 40 min. • 2) The 384-well plate was added with 20 μL of the kinase detection reagent, centrifuged at 1000 rpm for 1 min, and then incubated at room temperature of 25° C. for 40 min. • 3) After the reaction was completed, the […] value LUM was read on Envision. 4. Data Analysis The following equation was used to calculate the inhibition (% inh): […]

HepG2 cells = assay: Inhibition of production of fructose-1-phosphate induced by D-Fructose in HepG2 cells (LC-MS); format: cell-based; details: 30 min compound pre-incubation, D-Fructose 3 hours
Experimental: Experimental Protocol: 1. Cell Culture and Inoculation • 1) HepG2 cells in the logarithmic growth phase were collected and counted with a […]. The Trypan blue exclusion method was used to detect cell viability and ensure that cell viability is 90% or above. • 2) The concentration of HepG2 cells was adjusted, and 81 μL of the cell suspension in a FBS-free basal medium (starvation treatment) was add to a 96-well plate, with a cell inoculum amount of 5×10^4 cells per test well. • 3) The HepG2 cells in the 96-well plate were cultured overnight at 37° C., 5% CO2, and 95% humidity. 2. Administration • 1) Before administration, 9 μL of FBS was added to the test wells of the 96-well plate to stop the starvation treatment. • 2) 10× stock solutions of the individual test compounds were prepared by dilution in a 3-fold gradient to 8 concentrations, with the highest concentration of 100 μM. 10 μL of the test compound solutions was added to each well of the 96-well plate inoculated with the cells, in triplicate per test compound concentration. For the solvent control, 10 μL of 1% DMSO solution was added to each well, in triplicate. • 3) The cells in the 96-well plate added with the test compounds were incubated at 37° C., 5% CO2, and 95% humidity for 30 min. • 4) An 11-fold D-Fructose solution was prepared at the concentration of 220 mM. 10 μL of the D-Fructose solution was added to the 96-well plate inoculated with HepG2 cells per well, in triplicate. For the solvent control, 10 μL of 11% DPBS solution was added, in triplicate. • 5) The cells in the 96-well plate added with D-fructose were incubated at 37° C., 5% CO2, and 95% humidity for 3 hours. 3. Sample Treatment The medium in the 96-well plate was removed, and the cells in the 96-well plate were washed with cold DPBS (200 μl/well) for 3 times. 30 μL of cold 10 mM ammonium acetate (pH 7.4) was added into each well to lyse the cells (hypotonic lysis). After lysis on ice for 5 minutes, the cells were fully pipetted and the cell lysate was taken for LC-MS analysis. 4. Data Analysis The data were analyzed with GraphPad Prism 5.0 software, and fitted with nonlinear S-curve regression, so as to obtain a dose-effect curve to calculate the EC50 value. 5.

KHK-C [2] = target: T1, KHK-C; assay: Inhibitory activity against KHK-C kinase in vitro (ADP-Glo), Experimental Protocol I; format: biochemical; details: 1 nM KHK-C, 100 μM ATP, 200 μM D-Fructose, control drug top concentration 10000 nM
Experimental: 2. […] 3. Reaction Termination and Detection • 1) The 384-well plate was added with 10 μL of the ADP Glo reagent, centrifuged at 1000 rpm for 1 min, and then incubated at room temperature of 25° C. for 40 min. • 2) The 384-well plate was added with 20 μL of the kinase detection reagent, centrifuged at 1000 rpm for 1 min, and then incubated at room temperature of 25° C. for 40 min. • 3) After the reaction was completed, the […] value LUM was read on Envision. 4. Data Analysis The following equation was used to calculate the inhibition (% inh): […]

T1 sequence (P50053 whole entry): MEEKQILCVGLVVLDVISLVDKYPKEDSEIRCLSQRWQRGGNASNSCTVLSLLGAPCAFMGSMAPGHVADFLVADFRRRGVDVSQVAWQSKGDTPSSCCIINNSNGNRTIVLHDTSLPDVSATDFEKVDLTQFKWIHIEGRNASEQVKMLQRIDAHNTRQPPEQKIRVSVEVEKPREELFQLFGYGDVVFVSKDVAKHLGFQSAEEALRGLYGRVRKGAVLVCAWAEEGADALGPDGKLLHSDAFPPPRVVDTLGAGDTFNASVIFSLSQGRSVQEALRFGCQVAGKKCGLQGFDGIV

SMILES	IC50 (KHK-C [1]) [nM]	EC50 (HepG2 cells; Homo sapiens) [nM]	IC50 (KHK-C [2]) [nM]	EC50 (HepG2 cells) [nM]
C[C@H]1CCN1c1nc(N2C[C@@H]3[C@@H](CC(=O)O)[C@@H]3C2)c2c(n1)C(F)(F)CC2 [Compound 1, 2-((1R,5S,6R)-3-(7,7-difluoro-2-((S)-2-methylazetidin-1-yl)-6,7-dihydro-5H-cyclopenta[d]pyrimidin-4-yl)-3-azabicyclo[3.1.0]hexan-6-yl)acetic acid]	–	21.9	–	–
C[C@H]1CCN1c1nc(N2C[C@@H]3[C@@H](CC(=O)O)[C@@H]3C2)c2c(n1)C(F)(F)CCC2 [Compound 2, 2-((1R,5S,6R)-3-(8,8-difluoro-2-((S)-2-methylazetidin-1-yl)-5,6,7,8-tetrahydroquinazolin-4-yl)-3-azabicyclo[3.1.0]hexan-6-yl)acetic acid]	–	14.5	0.52	–
CC1C(F)CN1c1nc(N2C[C@@H]3[C@@H](CC(=O)O)[C@@H]3C2)c2c(n1)C(F)(F)CCC2 (stereo partly drawn) [Compound 3-1, 2-((1R,5S,6s)-3-(8,8-difluoro-2-(3-fluoro-2-methylazetidin-1-yl)-5,6,7,8-tetrahydroquinazolin-4-yl)-3-azabicyclo[3.1.0]hexan-6-yl)acetic acid]	0.73	7.3	–	–
CC1N(c2nc(N3C[C@@H]4[C@@H](CC(=O)O)[C@@H]4C3)c3c(n2)C(F)(F)CCC3)CC1(F)F (stereo partly drawn) [Compound 4-1, 2-((1R,5S,6s)-3-(2-(3,3-difluoro-2-methylazetidin-1-yl)-8,8-difluoro-5,6,7,8-tetrahydroquinazolin-4-yl)-3-azabicyclo[3.1.0]hexan-6-yl)acetic acid]	2.2	11.8	–	–
C[C@H]1CCN1c1nc(N2C[C@@H]3C(CC(=O)O)[C@@H]3C2)cc(C(F)(F)F)n1 (stereo partly drawn) [PF-06835919, reference compound]	–	–	–	169

More lines, in order of falling EC50 (HepG2 cells; Homo sapiens), values ahead:

IC50 (KHK-C [1]) [nM]	EC50 (HepG2 cells; Homo sapiens) [nM]	IC50 (KHK-C [2]) [nM]	EC50 (HepG2 cells) [nM]	SMILES
0.9	39	–	–	CC1C(F)CN1c1nc(N2C[C@@H]3[C@@H](CC(=O)O)[C@@H]3C2)c2c(n1)C(F)(F)CC2 (stereo partly drawn) [Compound 6-1, 2-((1R,5S,6s)-3-(7,7-difluoro-2-(3-fluoro-2-methylazetidin-1-yl)-6,7-dihydro-5H-cyclopenta[d]pyrimidin-4-yl)-3-azabicyclo[3.1.0]hexan-6-yl)acetic acid]
1.5	18.2	–	–	C[C@H]1N(c2nc(N3C[C@@H]4[C@@H](CC(=O)O)[C@@H]4C3)c3c(n2)C(F)(F)CCC3)CC1(F)F (single isomer, unassigned) [Compound 4-2]
